Laboratory results as given in patent publication US9096591B2, “Tetracyclic compounds” (Medivation Technologies, Inc., priority 2007, dated 2015).
“And” between values parts separate entries of the source, which are not always exact repeats. Equal values may be shown once.

Assays:
[1] = system: adrenergic receptors α1D, α2A, α2B; serotonin receptor 5-HT6; dopamine receptor D2L; assay: Classification of compounds (Type 1-4) from receptor binding and neurite outgrowth
Source text: Compounds of the invention that inhibit binding of a ligand to adrenergic receptors α1D, α2A, α2B and serotonin receptor 5-HT6 by at least about 80% as determined in a suitable assay such as the assays described herein can be classified as Type 1 compounds. […] In one variation, binding of a ligand to serotonin receptor 5-HT7 is at least about 80%. […] Weak inhibition of binding of a ligand to the histamine H1 receptor is permitted as agonists of this receptor have been implicated in stimulating memory as well as weight gain. In one variation, binding to histamine receptor H1 is inhibited by less than about 80%. […] Compounds that inhibit binding of a ligand to the dopamine D2L receptor by at least about 80% as determined in a suitable assay such as the assay described herein can be classified as Type 2 compounds.
In one variation, Type 1 compounds further inhibit binding of a ligand to dopamine receptor D2L by less than about 80% as determined in a suitable assay known in the art such as the assay described herein. […] In one variation, binding of a ligand to serotonin receptor 5-HT7, 5-HT2A and/or 5-HT2C is inhibited by at least about 80% as determined in a suitable assay such as the assays described herein. […] In one variation, binding of a ligand to histamine receptor H1 and/or H2 is inhibited by less than about 80% as determined by a suitable assay known in the art such as the assays described herein.
In one variation, biding to serotonin receptor 5-HT2A is inhibited by at least about 80% as determined in a suitable assay know in the art such as the assay described herein.

[2] = biological target: T1, human recombinant dopamine D2L receptor (Homo sapiens, UniProt P14416); assay: Dopamine D2L antagonist activity ([35S]GTPγS binding, SPA); type: biochemical
T1 construct: expressed in transfected cells; host or cells: CHO cells
Protocol: To determine for agonist or antagonist activity of compounds of the invention in functional assays, human recombinant dopamine D2L receptor stably expressed in Chinese hamster ovary (CHO) cells (Senogles S E et al. J Biol Chem. 265(8): 4507, 1990) was used. Compounds of invention were pre-incubated with the membranes (0.1 mg/ml) and […] in modified HEPES buffer (20 mM HEPES, pH 7.4, 100 mM NaCl, 10 mM MgCl2, 1 mM DTT, 1 mM EDTA) for 20 minutes and Scintillation Proximity Assay (SPA) beads were added for another 60 minutes at 30° C. The reaction was initiated by 0.3 nM [^35S]GTPγS for an additional 15 minute incubation period. […] Compounds were screened at 3 μM or lower, using 0.4% DMSO as vehicle. Assay results are presented as the percent response of specific binding in Table 8.

[3] = biological target: human recombinant dopamine D2S receptor (Homo sapiens, UniProt P14416); assay: Dopamine D2S antagonist activity ([35S]GTPγS binding, SPA); type: biochemical
Protocol: To determine for agonist or antagonist activity of compounds of the invention in functional assays, human recombinant dopamine D2S receptor stably expressed in Chinese hamster ovary (CHO) cells (Gilliland S L and Alper R H. Naunyn-Schmiedeberg's Archives of Pharmacology. 361: 498, 2000) was used. Compounds of invention were pre-incubated with the membranes (0.05 mg/ml) and 3 μM GDP in modified HEPES buffer (20 mM HEPES, pH 7.4, 100 mM NaCl, 10 mM MgCl2, 1 mM DTT, 1 mM EDTA) for 20 minutes and Scintillation Proximity Assay (SPA) beads were then added for another 60 minutes at 30° C. The reaction was initiated by 0.3 nM [^35S]GTPγS for an additional 30 minute incubation period. […] Compounds were screened at 3 μM or lower, using 0.4% DMSO as vehicle. Assay results are presented as the percent response of specific binding in Table 9.

[4] = biological target: T2, human recombinant serotonin 5-HT2A receptor (Homo sapiens, UniProt P28223); assay: Serotonin 5-HT2A agonist/antagonist functional assay (calcium fluorescence, HEK-293); type: cell-based; details: antagonist mode
T2 construct: expressed in transfected cells; host or cells: HEK-293 cells
Source text: To determine for agonist or antagonist activity of compounds of the invention in functional assays, human recombinant serotonin 5-HT2A receptor expressed in human embryonic kidney (HEK-293) cells (Jerman J C, Brough S J, Gager T, Wood M, Coldwell M C, Smart D and Middlemiss D N. Eur J Pharmacol, 414: 23-30, 2001) was used. Cells were suspended in DMEM buffer, and distributed in microplates. A cytoplasmic calcium fluorescent indicator which varies proportionally to the free cytosolic Ca^2+ ion concentration was mixed with probenicid in HBSS buffer complemented with 20 mM Hepes (pH 7.4), added into each well and equilibrated with the cells for 30 min at 37° C. followed by 30 min at 22° C. […]
The standard reference antagonist was ketanserin, which was tested in each experiment at several concentrations to generate a concentration-response curve from which its IC50 value was calculated.

[5] = 0.3 uM, two values = assay run twice, read-out: Antagonist Activity As Measured by % Inhibition D2L
[6] = two values = assay run twice, read-out: Antagonist Activity As Measured by % Inhibition D2S
[7] = 0.03 uM, two values = assay run twice

Chain of human recombinant dopamine D2S receptor (P14416 1-414 isoform P14416-2): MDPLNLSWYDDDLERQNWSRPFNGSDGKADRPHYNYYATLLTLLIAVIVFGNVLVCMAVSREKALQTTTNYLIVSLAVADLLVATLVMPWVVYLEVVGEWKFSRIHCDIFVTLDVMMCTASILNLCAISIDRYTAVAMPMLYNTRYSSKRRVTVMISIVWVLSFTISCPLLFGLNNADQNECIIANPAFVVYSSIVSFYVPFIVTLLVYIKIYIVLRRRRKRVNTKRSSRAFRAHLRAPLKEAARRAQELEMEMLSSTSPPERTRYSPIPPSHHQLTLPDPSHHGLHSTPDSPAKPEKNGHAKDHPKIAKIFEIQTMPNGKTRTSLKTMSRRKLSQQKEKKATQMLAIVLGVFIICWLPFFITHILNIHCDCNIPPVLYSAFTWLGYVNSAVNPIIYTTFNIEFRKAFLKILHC
T1 sequence (P14416 whole entry): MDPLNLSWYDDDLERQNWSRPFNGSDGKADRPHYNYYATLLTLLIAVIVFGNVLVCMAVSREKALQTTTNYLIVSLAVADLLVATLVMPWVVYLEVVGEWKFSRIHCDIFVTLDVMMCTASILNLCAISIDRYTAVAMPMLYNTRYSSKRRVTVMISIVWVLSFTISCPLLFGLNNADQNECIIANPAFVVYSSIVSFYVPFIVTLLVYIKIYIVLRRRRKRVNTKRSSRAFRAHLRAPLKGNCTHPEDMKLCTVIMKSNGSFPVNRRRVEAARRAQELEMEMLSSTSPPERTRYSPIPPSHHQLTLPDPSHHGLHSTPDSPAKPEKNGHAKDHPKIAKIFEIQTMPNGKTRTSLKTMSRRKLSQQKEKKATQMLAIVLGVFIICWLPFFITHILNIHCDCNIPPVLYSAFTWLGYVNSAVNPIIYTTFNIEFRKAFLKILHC
T2 sequence (P28223 whole entry): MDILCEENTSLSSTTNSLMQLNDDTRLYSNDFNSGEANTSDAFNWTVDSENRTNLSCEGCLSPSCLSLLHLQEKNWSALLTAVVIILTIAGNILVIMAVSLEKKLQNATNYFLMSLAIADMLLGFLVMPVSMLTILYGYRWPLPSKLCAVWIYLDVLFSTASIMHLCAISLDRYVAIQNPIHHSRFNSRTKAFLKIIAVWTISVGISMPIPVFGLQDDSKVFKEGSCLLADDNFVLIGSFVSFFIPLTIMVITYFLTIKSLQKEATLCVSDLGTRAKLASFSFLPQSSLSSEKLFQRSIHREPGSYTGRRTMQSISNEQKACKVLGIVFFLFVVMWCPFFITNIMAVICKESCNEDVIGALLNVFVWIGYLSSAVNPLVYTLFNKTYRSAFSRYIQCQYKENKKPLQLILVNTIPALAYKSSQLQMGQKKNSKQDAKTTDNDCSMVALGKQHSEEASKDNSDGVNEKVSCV

CN1CCc2c(c3cc(Cl)ccc3n2CCc2cncc(Cl)c2)C1 [Compound 444, 8-chloro-5-(2-(5-chloropyridin-3-yl)ethyl)-2,3,4,5-tetrahydro-2-methyl-1H-pyrido[4,3-b]indole]
compound type (classification by receptor binding profile and neurite outgrowth) [1]: Type one

Cc1ccc2c(c1)c1c(n2CC(C)c2ccc(F)cc2)CCN(C)C1 (stereo not drawn) [Compound 456, 5-(2-(4-fluorophenyl)propyl)-2,3,4,5-tetrahydro-2,8-dimethyl-1H-pyrido[4,3-b]indole]
compound type (classification by receptor binding profile and neurite outgrowth) [1]: Type one

Cc1ccc(CCn2c3c(c4cc(C(F)(F)F)ccc42)CN(C)CC3)cc1 [Compound 47]
compound type (classification by receptor binding profile and neurite outgrowth) [1]: Type one

Cc1ccc2c(c1)c1c(n2CCc2ccc(C(F)(F)F)nc2)CCN(C)C1 [Compound 68]
inhibition at 0.3 µM [2, 5]: 8% | inhibition at 1 µM ([2]; 1 uM, read-out: Antagonist Activity As Measured by % Inhibition D2L): 27% | inhibition at 3 µM ([2]; 3 uM, read-out: Antagonist Activity As Measured by % Inhibition D2L): 54% | inhibition at 0.3 µM [3, 6]: 42% | inhibition at 1 µM ([3]; 1 uM, read-out: Antagonist Activity As Measured by % Inhibition D2S): 70% | inhibition at 3 µM ([3]; 3 uM, read-out: Antagonist Activity As Measured by % Inhibition D2S): 93% | compound type (classification by receptor binding profile and neurite outgrowth) [1]: Type one

Cc1ccc2c(c1)c1c(n2CCc2cncc(Cl)c2)CCN(C)C1 [Compound 443, 5-(2-(5-chloropyridin-3-yl)ethyl)-2,3,4,5-tetrahydro-2,8-dimethyl-1H-pyrido[4,3-b]indole]
compound type (classification by receptor binding profile and neurite outgrowth) [1]: Type one

CCCc1ccc(CCn2c3c(c4cc(Cl)ccc42)CN(C)CC3)cn1 [Compound 476, 8-chloro-2,3,4,5-tetrahydro-2-methyl-5-(2-(6-propylpyridin-3-yl)ethyl)-1H-pyrido[4,3-b]indole]
compound type (classification by receptor binding profile and neurite outgrowth) [1]: Type one

CN1CCc2c(c3cccc(Cl)c3n2CCc2ccccc2)C1 [Compound 83]
compound type (classification by receptor binding profile and neurite outgrowth) [1]: Type one

Cc1ccc2c(c1)c1c(n2CCc2cccnc2)CCN(C)C1 [Compound 60]
compound type (classification by receptor binding profile and neurite outgrowth) [1]: Type one

CN1CCc2c(c3cc(F)ccc3n2CCc2ccc(F)cc2)C1 [Compound 253]
% of Control Agonist Response, 1st Assay ([4]; test concentration 1.00E−06 M): 0% | % of Control Agonist Response, 2nd Assay ([4]; test concentration 1.00E−06 M): 3% | % of Control Agonist Response, Mean ([4]; test concentration 1.00E−06 M): 1.5% | % of Control Agonist Response, 1st Assay ([4]; test concentration 1.00E−07 M): 94% | % of Control Agonist Response, 2nd Assay ([4]; test concentration 1.00E−07 M): 95% | % of Control Agonist Response, Mean ([4]; test concentration 1.00E−07 M): 94.3% | % of Control Agonist Response, 1st Assay ([4]; test concentration 3.00E−06 M): −3% | % of Control Agonist Response, 2nd Assay ([4]; test concentration 3.00E−06 M): −3% | % of Control Agonist Response, Mean ([4]; test concentration 3.00E−06 M): −2.6% | % of Control Agonist Response, 1st Assay ([4]; test concentration 3.00E−07 M): 36% | % of Control Agonist Response, 2nd Assay ([4]; test concentration 3.00E−07 M): 80% | % of Control Agonist Response, Mean ([4]; test concentration 3.00E−07 M): 57.9% | % of Control Agonist Response, 1st Assay ([4]; test concentration 3.00E−08 M): 114% | % of Control Agonist Response, 2nd Assay ([4]; test concentration 3.00E−08 M): 119% | % of Control Agonist Response, Mean ([4]; test concentration 3.00E−08 M): 116.5% | Antagonist Activity As Measured by % Inhibition D2L [2, 7]: 56% | inhibition at 0.03 µM ([2]; 0.03 uM, two values = assay run twice, read-out: Antagonist Activity As Measured by % Inhibition D2L): 36% | Antagonist Activity As Measured by % Inhibition D2L ([2]; 0.1 uM, two values = assay run twice): 77% | inhibition at 0.1 µM ([2]; 0.1 uM, two values = assay run twice, read-out: Antagonist Activity As Measured by % Inhibition D2L): 57% | Antagonist Activity As Measured by % Inhibition D2L ([2]; 0.3 uM, two values = assay run twice): 89% | inhibition at 0.3 µM [2, 5]: 81% | Antagonist Activity As Measured by % Inhibition D2S [3, 7]: 104% and 80% | inhibition at 0.1 µM ([3]; 0.1 uM, two values = assay run twice, read-out: Antagonist Activity As Measured by % Inhibition D2S): 94% | inhibition at 0.3 µM [3, 6]: 96%

CN1CCc2c(c3cc(Cl)ccc3n2CCc2cccnc2)C1 [Compound 55]
compound type (classification by receptor binding profile and neurite outgrowth) [1]: Type one

CN1CCc2c(c3cc(Cl)ccc3n2CCc2ccc(Cl)cc2)C1 [Compound 45, 5-(4-chlorophenethyl)-8-chloro-2,3,4,5-tetrahydro-2-methyl-1H-pyrido[4,3-b]indole]
compound type (classification by receptor binding profile and neurite outgrowth) [1]: Type one

CN1CCc2c(c3cc(Cl)ccc3n2CCc2ccncc2)C1 [Compound 56]
compound type (classification by receptor binding profile and neurite outgrowth) [1]: Type one

Cc1ccc2c(c1)c1c(n2CCc2ccc(C(C)C)nc2)CCN(C)C1 [Compound 360, 5-[2-(6-Isopropyl-pyridin-3-yl)-ethyl]-2,8-dimethyl-2,3,4,5-tetrahydro-1H-pyrido[4,3-b]indole]
compound type (classification by receptor binding profile and neurite outgrowth) [1]: Type one

CN1CCc2c(c3cc(Cl)ccc3n2CCc2ccc(F)cc2)C1 [Compound 162, 5-(4-fluorophenethyl)-8-chloro-2,3,4,5-tetrahydro-2-methyl-1H-pyrido[4,3-b]indole]
compound type (classification by receptor binding profile and neurite outgrowth) [1]: Type one

Cc1ccc(CCn2c3c(c4cc(Cl)ccc42)CN(C)CC3)cc1 [Compound 43]
compound type (classification by receptor binding profile and neurite outgrowth) [1]: Type one

Cc1ccc(C(O)Cn2c3c(c4cc(C)ccc42)CN(C)CC3)cc1 (racemic) [Compound 28, racemic-2-(1,2,3,4-tetrahydro-2,8-dimethylpyrido[4,3-b]indol-5-yl)-1-p-tolylethanol]
compound type (classification by receptor binding profile and neurite outgrowth) [1]: Type one

CCc1ccc2c(c1)c1c(n2CCc2ccc(C)nc2)CCN(C)C1 [Compound 357, 8-Ethyl-2-methyl-5-[2-(6-methyl-pyridin-3-yl)-ethyl]-2,3,4,5-tetrahydro-1H-pyrido[4,3-b]indole]
compound type (classification by receptor binding profile and neurite outgrowth) [1]: Type one

Cc1ccc(CCn2c3c(c4cc(Cl)c(F)cc42)CN(C)CC3)cn1 [Compound 404, 8-Chloro-7-fluoro-2-methyl-5-[2-(6-methyl-pyridin-3-yl)-ethyl]-2,3,4,5-tetrahydro-1H-pyrido[4,3-b]indole]
compound type (classification by receptor binding profile and neurite outgrowth) [1]: Type one

Cc1ccc(CCn2c3c(c4cc(Cl)ccc42)CN(C)CC3)cn1 [Compound 225, 8-chloro-2,3,4,5-tetrahydro-2-methyl-5-(2-(6-methylpyridin-3-yl)ethyl)-1H-pyrido[4,3-b]indole]
compound type (classification by receptor binding profile and neurite outgrowth) [1]: Type one

CC(C)c1ccc(CCn2c3c(c4cc(Cl)ccc42)CN(C)CC3)cn1 [Compound 372, 8-Chloro-5-[2-(6-isopropyl-pyridin-3-yl)-ethyl]-2-methyl-2,3,4,5-tetrahydro-1H-pyrido[4,3-b]indole]
compound type (classification by receptor binding profile and neurite outgrowth) [1]: Type one

CCc1ccc(CCn2c3c(c4cc(Cl)ccc42)CN(C)CC3)cn1 [Compound 371, 8-Chloro-5-[2-(6-ethyl-pyridin-3-yl)-ethyl]-2-methyl-2,3,4,5-tetrahydro-1H-pyrido[4,3-b]indole]
compound type (classification by receptor binding profile and neurite outgrowth) [1]: Type one

CCCc1ccc(CCn2c3c(c4cc(C)ccc42)CN(C)CC3)cn1 [Compound 452, 2,8-Dimethyl-5-[2-(6-propyl-pyridin-3-yl)-ethyl]-2,3,4,5-tetrahydro-1H-pyrido[4,3-b]indole]
compound type (classification by receptor binding profile and neurite outgrowth) [1]: Type one
